In patent US20050215551A1, “1-[2H-1-benzopyran-2-one-8-yl]- piperazine derivatives for the treatment of movement disorders” (SOLVAY PHARMACEUTICALS B.V., priority 2004, published 2005):
Entries after “also recorded” stand apart in the source; their conditions may differ. Where two headings read alike, the source gives them in different places.

Columns and labels:
DBA/2 mice [1] = experiment: Anticonvulsant activity: audiogenic seizures in DBA/2 mice; type: in vivo; details: for effect on tonic phase of audiogenic seizures / effect on clonic phase of audiogenic seizures / effect on tonic and clonic phase of audiogenic seizures: 30 min after i.p. administration; for ED50: Mus musculus, ip, 0.5 h, 30 minutes after drug administration; for behavioural changes: all dosages tested
Excerpt: DBA/2 mice weighing 6-12 g (22-26 days old; either sex, Harlan Italy Correzzana, Milano, Italy) are housed in groups of 8-10 under a 12-h light/dark cycle (lights on at 7:00 a.m.) with food and water available ad libitum. The experimental protocol is approved by University of Catanzaro Ethical Committee. All procedures are in compliance with the Nationals Institutes of Health Guide for Care and Use of Laboratory Animals (Publication No. 85-23, revised 1985) and European Communities Council Directive of 24 Nov. 1986 (86/609 EEC).
The experiments are performed according to the method previously described by De Sarro et al. (1984), Eur. J. Pharmacol., 104, 55-60. Compounds of the invention or vehicle (controls) are given intraperitoneally (i.p.) and orally (p.o.) as freshly sonicated solutions in methylcellulose 1%. For the […]; pretreatment time at 30 and 60 min., For oral treatment, all animals are pretreated either at 30 or 60 min using the compounds of the invention at doses of 0.1, 0.3, 3, 6 and 10 mg/kg p.o. At least 10 mice per dose are used. After pretreatment time, each mouse is placed under a hemispheric perspex dome (58 cm in diameter) and 1 min is allowed for habituation and assessment of locomotor activity. Animals are challenged with a 12-16 kHz sinusoidal tone at 109 dB. Seizure response is assessed by two independent observers. The sound evoked behaviour is coded using the following scale: 0=no response, 1=wild running, 2=clonus, 3=tonic flexor and/or extensor; 4=respiratory arrest, on the basis of the concordant opinion of the observers. […] The maximum response is recorded for each animal. Rectal temperature is recorded immediately prior to auditory testing using an Elektrolaboratoriet thermometer type T.E.3. Behavioral changes are observed during the period between drug administration and auditory testing. In these experiments separate vehicle-treated and drug-treated groups are used at each pretreatment time (15 min-60 min). Percentage of mice showing wild running, clonic or tonic phase and the duration of anticonvulsant activity are compared to control group and statistically analyzed.
Statistical comparison between groups of control and drug-treated DBA/2 mice is made using Fisher's exact probability test (incidence of the seizure phases). The percentage incidence of each phase of the audiogenic seizure is determined for each drug. These values are plotted against the corresponding doses by a computer construction of the dose-effect curves for calculation of ED50 (with 95% confidence limits). The ED50 values for each compound are calculated using a computer program of the method of Litchfield and Wilcoxon (1949). At least 32 animals are used to calculate each ED50 value.
For systemic injections and oral administrations, all compounds are given intraperitoneally (0.1 ml/10 g of body weight of the mouse) as a freshly prepared solution in methylcellulose 1%. In order to avoid the light sensitivity, weighing and handling are carried out under sodium vapor lamps and the substances are protected from light during the experiments.

DBA/2 mice [2] = experiment: Interaction studies in DBA/2 mice: Compound 1 + vehicle, sumatriptan or SB 258741 (audiogenic seizures); type: in vivo; details: pre-treatment 3 mg/kg, i.p.; for effect of pre-treatment on the anti-epileptic activity (dose-response curve) of Compound 1: 5 min before Compound 1
Protocol: The experiments are performed according to the method previously described by De Sarro et al. (1984), Eur. J. Pharmacol., 104, 55-60. Compounds of the invention or vehicle (controls) are given intraperitoneally (i.p.) and orally (p.o.) as freshly sonicated solutions in methylcellulose 1%. For the i.p. treatment compounds of the invention are given at doses of 0.1, 0.3, 3, 10, 15, 20 and 30 mg/kg; pretreatment time at 30 and 60 min., For oral treatment, all animals are pretreated either at 30 or 60 min using the compounds of the invention at doses of 0.1, 0.3, 3, 6 and 10 mg/kg p.o. At least 10 mice per dose are used. After pretreatment time, each mouse is placed under a hemispheric perspex dome (58 cm in diameter) and 1 min is allowed for habituation and assessment of locomotor activity. Animals are challenged with a 12-16 kHz sinusoidal tone at 109 dB. Seizure response is assessed by two independent observers. The sound evoked behaviour is coded using the following scale: 0=no response, 1=wild running, 2=clonus, 3=tonic flexor and/or extensor; 4=respiratory arrest, on the basis of the concordant opinion of the observers. […] The maximum response is recorded for each animal. Rectal temperature is recorded immediately prior to auditory testing using an Elektrolaboratoriet thermometer type T.E.3. Behavioral changes are observed during the period between drug administration and auditory testing. In these experiments separate vehicle-treated and drug-treated groups are used at each pretreatment time (15 min-60 min). Percentage of mice showing wild running, clonic or tonic phase and the duration of anticonvulsant activity are compared to control group and statistically analyzed.

5-HT1A = target: T1, 5-HT1A (Rattus norvegicus, UniProt P19327); experiment: In vivo 5-HT1A agonism: lower lip retraction (LLR); details: 60 minutes after oral administration
T1 construct: from tissue; host or cells: whole animal (in vivo behavioural test)
T1 sequence (P19327 whole entry): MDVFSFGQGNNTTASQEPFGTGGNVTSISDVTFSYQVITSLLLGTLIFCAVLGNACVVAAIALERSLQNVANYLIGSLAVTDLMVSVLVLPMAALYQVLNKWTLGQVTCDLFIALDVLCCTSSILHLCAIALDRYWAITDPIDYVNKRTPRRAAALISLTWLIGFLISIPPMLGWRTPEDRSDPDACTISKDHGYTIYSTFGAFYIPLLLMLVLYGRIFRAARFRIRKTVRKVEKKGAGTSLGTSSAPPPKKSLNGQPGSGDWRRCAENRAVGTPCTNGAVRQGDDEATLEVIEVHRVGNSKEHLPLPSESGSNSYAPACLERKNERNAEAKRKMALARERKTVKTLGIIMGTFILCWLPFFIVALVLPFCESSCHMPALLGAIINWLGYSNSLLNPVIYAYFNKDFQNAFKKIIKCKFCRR
Protocol: Lower lip retraction was measured according to the method described by Berendsen et al., (Pharmacol. Biochem. Behav. 33, (1989), 821-827).

[3] = i.p. administration, read-out: ED50 Clonic seizures
[4] = i.p. administration, read-out: ED50 Tonic extension
[5] = i.p. administration, read-out: ED50 Wild running

ED50 (5-HT1A) [mg/kg]	Compound	effect on tonic phase of audiogenic seizures (DBA/2 mice [1]; 15 mg/kg)	effect on clonic phase of audiogenic seizures (DBA/2 mice [1]; 1, 3, 10 and 15 mg/kg)	ED50 (DBA/2 mice [1]; [3]) [mg/kg]	ED50 (DBA/2 mice [1]; [4]) [mg/kg]	ED50 (DBA/2 mice [1]; [5]) [mg/kg]	behavioural changes (DBA/2 mice [1]; i.p. administration)	effect of pre-treatment on the anti-epileptic activity (dose-response curve) of Compound 1 (DBA/2 mice [2])	potency in shifting the dose-response curve of Compound 1, compared (DBA/2 mice [2]; 5 min before)	effect on tonic phase of audiogenic seizures (DBA/2 mice [1]; 0.3, 1, 3, 10 mg/kg)	effect on clonic phase of audiogenic seizures (DBA/2 mice [1]; 0.3, 1, 3, 10, 15 and 20 mg/kg)	effect on tonic phase of audiogenic seizures (DBA/2 mice [1]; 15 and 20 mg/kg)	ED50 (DBA/2 mice [1]; read-out: ED50 Tonic extension, i.p. administration) [mg/kg]	effect on tonic and clonic phase of audiogenic seizures (DBA/2 mice [1]; 0.3, 1, 3, 5 and 7,5 mg/kg)	effect on tonic and clonic phase of audiogenic seizures (DBA/2 mice [1]; 10 and 15 mg/kg)
	Cc1cccc(S(=O)(=O)N2CCC[C@@H]2CCN2CCC(C)CC2)c1 [SB258741]	able to significantly (P<0.01) antagonize	did not significantly antagonize	> 15	~12	> 15	At none of the dosages tested	shift the dose-response curve of COMPOUND 1 to the right; also recorded: partly antagonized							
	CNS(=O)(=O)Cc1ccc2[nH]cc(CCN(C)C)c2c1 [sumatriptan, reference compound]							shift the dose-response curve of COMPOUND 1 to the right; also recorded: partly antagonized	more potent than SB 258741						
	CCCN(CCC)C1CCc2cccc(O)c2C1 (centres unmarked) [Compound 8-OH-DPAT, 8-hydroxy-2-(di-n-propylamino)tetralin]			> 20		> 20	At none of the dosages tested			did not significantly antagonized	did not significantly antagonized	able to significantly (P<0.01 and P<0.05) antagonize	15		
0.22	O=C(NCCN1CCN(c2cccc3c2OC[C@H](CO)O3)CC1)c1ccc(F)cc1 [flesinoxan]			9.37	7.74	> 15	At none of the dosages tested							did not significantly antagonized	able to significantly (P<0.0.1) antagonize
